In US12703685B2, “Crystalline forms of solvates of tryptophan derivatives, compositions comprising them and uses thereof” (GALIMEDIX THERAPEUTICS INC., priority 2020, dated 2026):
Square brackets hold non-standard residues; d marks the D form. Peptide text beside a SMILES is read from it. Aib = CC(C)(N)C(=O)O

Legend:
Oral bioavailability = conditions: in vivo, rodents
Experimental: In some embodiments a pharmaceutical composition of the invention is an oral administration form. […] In some embodiments, the oral availability of the pharmaceutical composition of the invention is in the range of 10%. In another embodiment, the oral availability of the pharmaceutical composition of the invention is above 10%. In some embodiments the pharmaceutical composition is administered once a day, twice a day or three times a day.

[1] = Hygroscopicity at 58-60% relative humidity; type: physicochemical; conditions: 20-25° C.
[2] = DSC heating above the melting point, residue analyzed by TLC; type: physicochemical; conditions: DSC heating cycle
Text: During the second heating cycle the peak of melting was missing, only the high temperature decomposition was observed. […]

[3] = Stability test of the crystalline salt at 50° C.; type: physicochemical; conditions: 48 hours
[4] = 50° C.

Row | solubility of crystalline forms (Solubility in water) | Solubility at 24° C. (Solubility in water; deionized water, 24° C., stirred 1 hr, filtered, filtrate evaporated) | solubility in water (concentration of solution) (Solubility in water; deionized water, room temperature) | bioavailability (Oral bioavailability) | hygroscopicity: weight increase of crystals ([1]; 24 hours) | hygroscopicity: weight increase of crystals ([1]; 48 hours) | decomposition after heating above the melting point [2] | stability of crystalline salt (degradation) [3] | stability of 70 w/w % aqueous solution (degradation) ([4]; 48 hours) | thermal stability of 70 w/w % solution in water (decomposition by TLC) ([4]; N2 atmosphere, 24 hrs) | Compound
1 | very poor solubility | 1.3 w/w % | 1.3 w/w % | ~5% |  |  |  |  |  |  | CC(C)(NC(=O)[C@H](N)Cc1c[nH]c2ccccc12)C(=O)O [compound (1)] (H-[dW]-[Aib]-OH)
2 |  |  |  |  | 2.64% | 3.4% | no decomposition | no degradation was observed | no degradation was observed | No traces of decomposition | CC(C)(NC(=O)[C@H](N)Cc1c[nH]c2ccccc12)C(=O)O [UB-18813] (H-[dW]-[Aib]-OH)
